# Experimental data taken from the NIST ThermoML archive (doi:10.1016/j.fluid.2009.07.009).
# Numbers after ± are expanded uncertainties.
# Assay: relative permittivity at zero frequency (dimensionless)
# Settings: 303.15 K; 101.33 kPa; Liquid; Parallel plate capacitor
row,relative permittivity at zero frequency,Structure (SMILES)
1,106.14 ± 0.01,NC=O [formamide]
2,36.55 ± 0.22,CN(C)C=O [dimethylformamide]

row,Structure (SMILES),relative permittivity at zero frequency
1,"CN(C)CCO [2-(N,N-dimethylamino)ethanol]",17.18 ± 0.1
